One experiment deals with T1, Interstitial collagenase (Homo sapiens, UniProt P03956).
T1 sequence (P03956 whole entry): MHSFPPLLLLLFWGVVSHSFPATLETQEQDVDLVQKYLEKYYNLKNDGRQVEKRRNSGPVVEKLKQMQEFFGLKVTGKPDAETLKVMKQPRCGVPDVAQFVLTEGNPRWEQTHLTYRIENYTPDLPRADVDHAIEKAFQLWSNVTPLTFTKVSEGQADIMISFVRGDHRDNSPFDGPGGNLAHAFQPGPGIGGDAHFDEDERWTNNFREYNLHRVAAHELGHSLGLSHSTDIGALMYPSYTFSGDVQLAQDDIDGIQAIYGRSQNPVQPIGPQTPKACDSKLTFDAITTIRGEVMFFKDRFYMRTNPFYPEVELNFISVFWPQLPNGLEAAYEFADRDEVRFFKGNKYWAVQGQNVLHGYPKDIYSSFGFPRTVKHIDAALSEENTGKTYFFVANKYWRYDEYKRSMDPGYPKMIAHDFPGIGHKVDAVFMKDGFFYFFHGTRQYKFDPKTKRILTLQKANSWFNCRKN
Test: not given
The experiment is classed as tissue-based, Rheumatoid synovial fibroblasts.
Details: not given
Sequence of D(3) dopamine receptor (P35462 whole entry): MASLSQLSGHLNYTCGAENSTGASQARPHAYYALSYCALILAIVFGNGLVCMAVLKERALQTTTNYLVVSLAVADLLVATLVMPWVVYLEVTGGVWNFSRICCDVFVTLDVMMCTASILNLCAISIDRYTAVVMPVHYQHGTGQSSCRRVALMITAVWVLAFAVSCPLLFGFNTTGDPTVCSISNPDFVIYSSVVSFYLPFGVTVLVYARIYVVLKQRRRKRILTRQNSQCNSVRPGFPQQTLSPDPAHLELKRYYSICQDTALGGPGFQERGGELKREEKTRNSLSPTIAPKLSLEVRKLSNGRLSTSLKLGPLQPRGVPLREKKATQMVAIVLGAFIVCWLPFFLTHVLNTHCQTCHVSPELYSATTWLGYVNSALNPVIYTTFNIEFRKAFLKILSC
Sequence of Platelet-activating factor receptor (P25105 whole entry): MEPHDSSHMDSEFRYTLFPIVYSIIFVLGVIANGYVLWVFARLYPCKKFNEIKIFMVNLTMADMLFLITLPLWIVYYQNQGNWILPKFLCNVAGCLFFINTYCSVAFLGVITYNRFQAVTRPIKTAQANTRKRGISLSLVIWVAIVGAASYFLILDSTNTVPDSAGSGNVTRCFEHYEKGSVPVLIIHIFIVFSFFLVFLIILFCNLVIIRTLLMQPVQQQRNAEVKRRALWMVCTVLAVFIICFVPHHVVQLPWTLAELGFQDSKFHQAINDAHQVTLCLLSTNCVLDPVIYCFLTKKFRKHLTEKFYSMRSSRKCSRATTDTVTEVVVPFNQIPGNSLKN
For `C=C1CC[C@H](O)C/C1=C/C=C1\CCC[C@]2(C)[C@@H]([C@H](C)/C=C/[C@H](C)C(C)C)CC[C@@H]12` [ERGOCALCIFEROL], the IC50 entry is on record as “Not Active”.
Regarding CARBOPLATIN, the IC50 result was “Not Active” and the Ki result is “Not Active”.

The next experiment has as its target T2, 3-hydroxy-3-methylglutaryl-coenzyme A reductase (Homo sapiens, UniProt P04035).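 Also: enzyme inhibition assay of HMG-CoA reductase using radiolabeled [14C]HMG-CoA as substrate; in other assays of this panel Not Active means under 50% inhibition at 10 µM.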
T2 sequence (P04035 whole entry): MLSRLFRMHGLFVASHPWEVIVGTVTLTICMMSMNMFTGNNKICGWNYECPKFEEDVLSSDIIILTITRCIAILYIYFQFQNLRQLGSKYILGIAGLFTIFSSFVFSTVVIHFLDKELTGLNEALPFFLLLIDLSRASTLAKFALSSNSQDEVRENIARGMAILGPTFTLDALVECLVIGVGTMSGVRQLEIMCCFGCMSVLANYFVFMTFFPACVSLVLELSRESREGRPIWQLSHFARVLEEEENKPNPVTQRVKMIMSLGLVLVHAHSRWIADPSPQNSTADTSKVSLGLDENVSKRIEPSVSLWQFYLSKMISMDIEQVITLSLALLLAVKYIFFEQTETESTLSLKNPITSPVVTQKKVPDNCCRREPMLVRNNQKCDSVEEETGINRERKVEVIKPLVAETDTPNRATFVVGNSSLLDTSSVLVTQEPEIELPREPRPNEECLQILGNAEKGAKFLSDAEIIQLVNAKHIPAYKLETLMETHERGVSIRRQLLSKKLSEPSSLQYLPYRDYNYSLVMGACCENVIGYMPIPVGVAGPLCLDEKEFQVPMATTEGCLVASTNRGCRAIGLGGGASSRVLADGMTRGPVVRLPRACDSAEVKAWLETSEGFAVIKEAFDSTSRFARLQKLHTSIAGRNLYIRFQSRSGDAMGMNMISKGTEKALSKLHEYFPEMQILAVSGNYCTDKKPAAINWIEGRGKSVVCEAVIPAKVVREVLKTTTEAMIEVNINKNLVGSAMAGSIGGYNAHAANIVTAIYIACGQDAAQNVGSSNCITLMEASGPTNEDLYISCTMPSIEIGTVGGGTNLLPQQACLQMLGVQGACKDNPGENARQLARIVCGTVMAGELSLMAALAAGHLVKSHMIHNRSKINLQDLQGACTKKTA
Test: not given
Further details: species or system Escherichia coli.
Details: not given
Take `C=C1CC[C@H](O)C/C1=C/C=C1\CCC[C@]2(C)[C@@H]([C@H](C)/C=C/[C@H](C)C(C)C)CC[C@@H]12` [ERGOCALCIFEROL]: the IC50 result is “Not Active”.
For the molecule CARBOPLATIN, the IC50 result is “Not Active” and the Ki result is “Not Active”.

In a further experiment the target is T3, Adenosine receptor A1 (Homo sapiens, UniProt P30542).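 Also: radioligand binding assay at the adenosine A1 receptor, with DPCPX serving as the labelled ligand; in other assays of this panel Not Active means under 50% inhibition at 10 µM.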
T3 sequence (P30542 whole entry): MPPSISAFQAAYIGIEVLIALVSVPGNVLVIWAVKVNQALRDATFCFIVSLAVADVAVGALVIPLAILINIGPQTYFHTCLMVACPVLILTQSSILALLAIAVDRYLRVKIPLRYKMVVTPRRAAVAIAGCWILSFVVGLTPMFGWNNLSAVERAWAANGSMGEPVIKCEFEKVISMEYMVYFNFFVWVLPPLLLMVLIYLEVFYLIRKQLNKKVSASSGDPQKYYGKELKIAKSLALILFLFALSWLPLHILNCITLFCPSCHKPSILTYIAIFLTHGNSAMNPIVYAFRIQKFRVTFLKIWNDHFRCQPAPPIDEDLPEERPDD
Test: not given
To be noted: cho. The experiment is classed as cell membranes, CHO, Membrane.
In the case of `C=C1CC[C@H](O)C/C1=C/C=C1\CCC[C@]2(C)[C@@H]([C@H](C)/C=C/[C@H](C)C(C)C)CC[C@@H]12` [ERGOCALCIFEROL], the IC50 result was “Not Active”.
On to CARBOPLATIN, for which the IC50 entry is listed as “Not Active” and the Ki result is listed as “Not Active”.

The target of another experiment is T4, Alpha-1D adrenergic receptor (Homo sapiens, UniProt P25100). Also: in other assays of this panel Not Active means under 50% inhibition at 10 µM.
T4 sequence (P25100 whole entry): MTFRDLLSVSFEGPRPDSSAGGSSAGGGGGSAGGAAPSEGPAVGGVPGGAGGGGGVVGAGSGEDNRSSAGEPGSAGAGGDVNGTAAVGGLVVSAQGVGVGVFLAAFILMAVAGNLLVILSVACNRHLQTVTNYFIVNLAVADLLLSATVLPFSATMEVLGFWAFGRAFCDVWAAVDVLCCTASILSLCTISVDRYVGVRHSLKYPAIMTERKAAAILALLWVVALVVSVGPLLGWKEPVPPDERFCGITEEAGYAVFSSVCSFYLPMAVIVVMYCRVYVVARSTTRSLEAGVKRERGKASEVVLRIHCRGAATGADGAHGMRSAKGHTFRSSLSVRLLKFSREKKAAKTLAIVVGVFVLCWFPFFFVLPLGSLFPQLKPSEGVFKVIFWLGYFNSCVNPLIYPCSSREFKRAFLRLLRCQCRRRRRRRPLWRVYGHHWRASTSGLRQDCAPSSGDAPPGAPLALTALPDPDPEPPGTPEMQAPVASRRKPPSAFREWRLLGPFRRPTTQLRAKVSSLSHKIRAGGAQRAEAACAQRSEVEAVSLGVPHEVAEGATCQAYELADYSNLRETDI
Test: not given
The experiment is classed as cell membranes, HEK293, Membrane. To be noted: hek293.
Take `C=C1CC[C@H](O)C/C1=C/C=C1\CCC[C@]2(C)[C@@H]([C@H](C)/C=C/[C@H](C)C(C)C)CC[C@@H]12` [ERGOCALCIFEROL]: the IC50 result is “Not Active”.
Turning to CARBOPLATIN, the IC50 result is on record as “Not Active” and the Ki result is listed as “Not Active”.

System in a further experiment: not listed separately
Nature of the experiment: DRUGMATRIX: Calcium Channel Type L, Phenylalkylamine radioligand binding (ligand: [3H] (-)-Desmethoxyverapamil (D-888)). Conditions: Not Active = under 50% inhibition at 10 µM. The experiment is classed as cell membranes, Rattus norvegicus, Wistar, Brain, Membrane.
In the case of `C=C1CC[C@H](O)C/C1=C/C=C1\CCC[C@]2(C)[C@@H]([C@H](C)/C=C/[C@H](C)C(C)C)CC[C@@H]12` [ERGOCALCIFEROL], the IC50 entry is on record as “Not Active” and the Ki entry was “Not Active”.
On to CARBOPLATIN, for which the IC50 result was “Not Active” and the Ki result was “Not Active”.

The next experiment deals with Prostaglandin G/H synthase 1 (Homo sapiens, UniProt P23219). Nature of the experiment: biochemical. The experiment is classed as tissue-based, Platelet. Conditions: platelet.
Sequence of Prostaglandin G/H synthase 1 (P23219 whole entry): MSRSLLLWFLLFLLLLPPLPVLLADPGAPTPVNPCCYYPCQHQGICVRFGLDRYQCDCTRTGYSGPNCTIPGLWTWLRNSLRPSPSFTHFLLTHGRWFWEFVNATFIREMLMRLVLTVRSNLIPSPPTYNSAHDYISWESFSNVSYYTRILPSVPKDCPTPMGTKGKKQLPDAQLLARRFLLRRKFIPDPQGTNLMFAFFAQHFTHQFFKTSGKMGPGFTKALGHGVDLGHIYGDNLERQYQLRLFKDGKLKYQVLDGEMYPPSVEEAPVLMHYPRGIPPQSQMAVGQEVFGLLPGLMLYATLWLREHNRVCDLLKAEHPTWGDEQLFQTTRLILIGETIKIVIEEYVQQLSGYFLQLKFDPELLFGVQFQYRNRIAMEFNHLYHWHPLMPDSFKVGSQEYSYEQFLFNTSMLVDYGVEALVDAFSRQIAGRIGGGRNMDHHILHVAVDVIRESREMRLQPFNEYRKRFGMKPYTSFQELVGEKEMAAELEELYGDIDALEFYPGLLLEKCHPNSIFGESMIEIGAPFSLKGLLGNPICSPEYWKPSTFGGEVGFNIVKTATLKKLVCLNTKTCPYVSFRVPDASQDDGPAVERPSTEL
Regarding `C=C1CC[C@H](O)C/C1=C/C=C1\CCC[C@]2(C)[C@@H]([C@H](C)/C=C/[C@H](C)C(C)C)CC[C@@H]12` [ERGOCALCIFEROL], the IC50 result is “Not Active”.
Consider CARBOPLATIN, for which the IC50 result is listed as “Not Active” and the Ki result is “Not Active”.

System in the next experiment: not listed separately
Nature of the experiment: DRUGMATRIX: Phosphodiesterase PDE4 enzyme inhibition (substrate: [3H]cAMP + cAMP). Conditions: u-937; Not Active = under 50% inhibition at 10 µM.
As to `C=C1CC[C@H](O)C/C1=C/C=C1\CCC[C@]2(C)[C@@H]([C@H](C)/C=C/[C@H](C)C(C)C)CC[C@@H]12` [ERGOCALCIFEROL], the IC50 entry is “Not Active” and the Ki result is listed as “Not Active”.
Take CARBOPLATIN: the IC50 result is on record as “Not Active” and the Ki result is recorded as “Not Active”.

System in a further experiment: not listed separately
Nature of the experiment: DRUGMATRIX: Glutamate, NMDA, Phencyclidine radioligand binding (ligand: [3H] TCP). The experiment is classed as cell membranes, Rattus norvegicus, Wistar, Cerebral cortex, Membrane. Conditions: Not Active = under 50% inhibition at 10 µM.
On to `C=C1CC[C@H](O)C/C1=C/C=C1\CCC[C@]2(C)[C@@H]([C@H](C)/C=C/[C@H](C)C(C)C)CC[C@@H]12` [ERGOCALCIFEROL], for which the IC50 entry is “Not Active” and the Ki result is reported as “Not Active”.
Regarding CARBOPLATIN, the IC50 entry is given as “Not Active” and the Ki entry is recorded as “Not Active”.

The next experiment has as its target Platelet-activating factor receptor (Homo sapiens, UniProt P25105). Nature of the experiment: biochemical. To be noted: platelet. The experiment is classed as tissue-based. Also: in other assays of this panel Not Active means under 50% inhibition at 10 µM.
Turning to `C=C1CC[C@H](O)C/C1=C/C=C1\CCC[C@]2(C)[C@@H]([C@H](C)/C=C/[C@H](C)C(C)C)CC[C@@H]12` [ERGOCALCIFEROL], the IC50 entry was “Not Active”.
Consider CARBOPLATIN, for which the IC50 result is “Not Active” and the Ki result was “Not Active”.

The next experiment addresses D(3) dopamine receptor (Homo sapiens, UniProt P35462). Nature of the experiment: DRUGMATRIX: Dopamine D3 radioligand binding (ligand: [3H] Spiperone). The class given is cell membranes, CHO, Membrane. Conditions: cho.
For the molecule `C=C1CC[C@H](O)C/C1=C/C=C1\CCC[C@]2(C)[C@@H]([C@H](C)/C=C/[C@H](C)C(C)C)CC[C@@H]12` [ERGOCALCIFEROL], the IC50 result is recorded as “Not Active”.
Take CARBOPLATIN: the IC50 result is “Not Active” and the Ki result is recorded as “Not Active”.

The target in a further experiment is Melanocortin receptor 3 (Homo sapiens, UniProt P41968). Also: in other assays of this panel Not Active means under 50% inhibition at 10 µM.
Sequence of Melanocortin receptor 3 (P41968 whole entry): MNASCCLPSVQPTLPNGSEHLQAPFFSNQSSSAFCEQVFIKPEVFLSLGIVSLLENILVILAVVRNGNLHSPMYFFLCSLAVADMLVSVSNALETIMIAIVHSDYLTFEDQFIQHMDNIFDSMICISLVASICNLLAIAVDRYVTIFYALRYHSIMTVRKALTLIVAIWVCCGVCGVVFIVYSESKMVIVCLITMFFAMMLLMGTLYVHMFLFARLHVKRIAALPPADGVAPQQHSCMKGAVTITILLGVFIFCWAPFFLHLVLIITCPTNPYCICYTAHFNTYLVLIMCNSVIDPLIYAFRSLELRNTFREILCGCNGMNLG
Test: not given
The class given is cell membranes, Membrane. Conditions: hek293.
Consider `C=C1CC[C@H](O)C/C1=C/C=C1\CCC[C@]2(C)[C@@H]([C@H](C)/C=C/[C@H](C)C(C)C)CC[C@@H]12` [ERGOCALCIFEROL], for which the IC50 result was “Not Active”.
Turning to CARBOPLATIN, the IC50 result is reported as “Not Active” and the Ki result is “Not Active”.

The target of another experiment is Mitogen-activated protein kinase 1 (Homo sapiens, UniProt P28482). Nature of the experiment: DRUGMATRIX: Protein Serine/Threonine Kinase, ERK2 enzyme inhibition (substrate: Myelin Basic Protein). The arrangement: species or system Escherichia coli. Conditions: Not Active = under 50% inhibition at 10 µM.
Sequence of Mitogen-activated protein kinase 1 (P28482 whole entry): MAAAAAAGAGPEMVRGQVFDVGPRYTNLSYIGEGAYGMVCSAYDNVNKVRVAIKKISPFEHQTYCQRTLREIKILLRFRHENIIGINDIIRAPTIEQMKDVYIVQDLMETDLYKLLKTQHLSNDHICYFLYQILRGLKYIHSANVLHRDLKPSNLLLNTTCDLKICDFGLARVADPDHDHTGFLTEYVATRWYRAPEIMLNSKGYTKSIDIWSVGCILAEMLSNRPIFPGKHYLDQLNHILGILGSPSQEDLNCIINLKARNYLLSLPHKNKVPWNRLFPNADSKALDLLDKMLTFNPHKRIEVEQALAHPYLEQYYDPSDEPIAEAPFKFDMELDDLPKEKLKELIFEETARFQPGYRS
For `C=C1CC[C@H](O)C/C1=C/C=C1\CCC[C@]2(C)[C@@H]([C@H](C)/C=C/[C@H](C)C(C)C)CC[C@@H]12` [ERGOCALCIFEROL], the IC50 result was “Not Active”.
Turning to CARBOPLATIN, the IC50 entry is “Not Active” and the Ki entry is reported as “Not Active”.

System in another experiment: not listed separately
Nature of the experiment: DRUGMATRIX: Glutamate, NMDA, Agonism radioligand binding (ligand: [3H] CGP-39653). The experiment is classed as cell membranes, Rattus norvegicus, Wistar, Cerebral cortex, Membrane. Conditions: Not Active = under 50% inhibition at 10 µM.
Consider `C=C1CC[C@H](O)C/C1=C/C=C1\CCC[C@]2(C)[C@@H]([C@H](C)/C=C/[C@H](C)C(C)C)CC[C@@H]12` [ERGOCALCIFEROL], for which the IC50 result was “Not Active” and the Ki result is given as “Not Active”.
In the case of CARBOPLATIN, the IC50 entry is recorded as “Not Active” and the Ki entry was “Not Active”.

Values taken from ChEMBL document CHEMBL1909046, “DrugMatrix in vitro pharmacology data”.
